Laboratory results taken from EP0081425B1, “Pharmaceutical compositions having normolipemic properties and containing compounds of the n-substituted benzenesulfonamide type” (priority 1981, dated 1983).
Read-outs that look alike come from different tables or passages of the source.

System: hyperlipidémie provoquée par l'administration de TRITON®
Experiment: Triton test: hyperlipidemia induced by i.v. TRITON W.R. in fasted rats
Type: in vivo, rats WISTAR mâles
Settings: for Cholestérol total Score (par rapport au clofibrate compté pour 1) / Triglycérides Score (par rapport au clofibrate compté pour 1) / Lipides totaux Score (par rapport au clofibrate compté pour 1) / Cholestérol estérifié Score (par rapport au clofibrate compté pour 1): ratio to clofibrate of the same series; for inhibition in vivo at 250 mg/kg: Rattus norvegicus, po, blood assayed 6 h and/or 24 h later
Excerpt: Dans une première série d'expériences, des produits ont été testés sur une hyperlipidémie provoquée par l'administration de TRITON® selon le protocole suivant.
Les essais ont été réalisés sur des groupes de cinq rats WISTAR mâles dont le poids varie de 150 à 175 g.
Pour effectuer ces essais, on provoque une hyperlipidémie chez les animaux, au moyen du produit commercialisé par la Société ROHM and HAAS sous le nom de TRITON® W. R.
On observe, sur cette hyperlipidémie, les effets obtenus par administration des substances actives selon l'invention.
Les essais sont réalisés comme suit : • les rats sont mis à jeûner pendant 18 heures, puis on administre le TRITON® W.R. par voie intraveineuse en solution aqueuse à 10 % à raison de 200 mg/kg ;
6 heures et/ou 24 heures plus tard, on effectue les dosages sur le sang de façon traditionnelle.
Dans la première colonne, on a indiqué le numéro du composé testé.
Dans la deuxième colonne, on a indiqué le nombre d'animaux qui ont été soumis au test.
Dans les quatre dernières colonnes, on a indiqué les résultats relatifs respectivement : • aux lipides totaux, • aux triglycérides, • au cholestérol total, • au cholestérol estérifié.
Dans chacune de ces colonnes, on indique : • a) le pourcentage de diminution par rapport au témoin TRITON; • b) le score par rapport au clofibrate de référence, c'est-à-dire le rapport de l'intensité de l'activité du produit testé vis-à-vis de celle,de l'activité au clofibrate comptée pour 1.

[1] = 250 mg/kg oral, given with TRITON W.R. 200 mg/kg i.v., read-out: Cholestérol estérifié % (pourcentage de diminution par rapport au témoin TRITON)
[2] = 250 mg/kg oral, given with TRITON W.R. 200 mg/kg i.v., read-out: Cholestérol total % (pourcentage de diminution par rapport au témoin TRITON)
[3] = 250 mg/kg oral, given with TRITON W.R. 200 mg/kg i.v., read-out: Triglycérides % (pourcentage de diminution par rapport au témoin TRITON)
[4] = read-out: Lipides totaux % (pourcentage de diminution par rapport au témoin TRITON), 250 mg/kg oral, given with TRITON W.R. 200 mg/kg i.v.

Compound | Cholestérol total Score (par rapport au clofibrate compté pour 1) (250 mg/kg oral) | Triglycérides Score (par rapport au clofibrate compté pour 1) (250 mg/kg oral) | inhibition in vivo at 250 mg/kg [1] [%] | inhibition in vivo at 250 mg/kg [2] [%] | inhibition in vivo at 250 mg/kg [3] [%] | Lipides totaux Score (par rapport au clofibrate compté pour 1) (250 mg/kg oral) | inhibition in vivo at 250 mg/kg [4] [%] | Cholestérol estérifié Score (par rapport au clofibrate compté pour 1) (250 mg/kg oral)
COc1ccc(Cl)cc1S(=O)(=O)NCCO [Composé n° 276] | 0,25 | 0,48 | 0 | 4.4 | 24.8 | – | – | –
CCC(CO)NS(=O)(=O)c1cc(Cl)ccc1OC (centres unmarked) [Composé n° 311] | – | – | 0 | 0 | 0 | 0,69 | 17.6 | –
CCC(CO)NS(=O)(=O)c1cc(N)ccc1OC (centres unmarked) [Composé n° 315] | 1,83 | 0,53 | 0.8 | 17.4 | 38.1 | 3,61 | 49.8 | –
COc1ccc(Cl)cc1S(=O)(=O)NCC(C)O (centres unmarked) [Composé n° 318] | 1,55 | – | 32 | 14.7 | 0 | 0,77 | 10.7 | 0,65
COc1cc(N)c(Cl)cc1S(=O)(=O)NCC(C)O (centres unmarked) [Composé n° 323] | 4,26 | – | 62.9 | 39.2 | 53 | 1,23 | 55.2 | 1,44
CCC(CO)NS(=O)(=O)c1cc(Br)ccc1OC (centres unmarked) [Composé n° 645] | 1,54 | 1,21 | 19.4 | 32.6 | 36.8 | 3,62 | 42.3 | 0,50
COc1cc([N+](=O)[O-])ccc1S(=O)(=O)NCCO [compound 277] | 0,18 | 0,38 | 2.9 | 3.2 | 19.7 | – | 0 | 0,08
COc1cc(N)ccc1S(=O)(=O)NCCO [compound 278] | – | – | 22 | 0 | 4.5 | – | – | 0,65
COc1ccc([N+](=O)[O-])cc1S(=O)(=O)NCCO [compound 279] | – | 0,20 | 0 | 0 | 10.2 | – | – | –
COc1ccc(N)cc1S(=O)(=O)NCCO [compound 280] | 0,11 | – | 2.9 | 1.9 | 0 | – | – | 0,08
COc1cc([N+](=O)[O-])c(Cl)cc1S(=O)(=O)NCCO [compound 281, chloro-5 N-(hydroxy-2 éthyl) méthoxy-2 nitro-4 benzènesulfonamide] | 0,75 | – | 4.9 | 13.3 | 0 | 0,25 | 11.3 | 0,13
COc1cc(N)c(Cl)cc1S(=O)(=O)NCCO [compound 282] | 0,75 | 0,42 | 15.5 | 13.3 | 21.6 | 0,26 | 12 | 0,46
CCC(CO)NS(=O)(=O)c1ccc([N+](=O)[O-])cc1OC (centres unmarked) [compound 312] | – | – | 54.1 | 55.1 | 0 | 1,79 | 45.4 | –
CCC(CO)NS(=O)(=O)c1ccc(N)cc1OC (centres unmarked) [compound 313] | – | – | 39.4 | 39.3 | 0 | 0,77 | 19.4 | –
CCC(CO)NS(=O)(=O)c1cc([N+](=O)[O-])ccc1OC (centres unmarked) [compound 314] | – | 0,04 | 44 | 42.1 | 1.2 | 1,02 | 25.9 | –
CCC(CO)NS(=O)(=O)c1cc(Cl)c(N)cc1OC (centres unmarked) [compound 317] | 0,17 | – | 25.4 | 1.6 | 0 | 3,11 | 42.9 | 0,52
COc1cc([N+](=O)[O-])ccc1S(=O)(=O)NCC(C)O (centres unmarked) [compound 319] | 0,17 | 0,78 | 16.4 | 1.6 | 56.5 | 1,55 | 21.4 | 0,33
COc1cc(N)ccc1S(=O)(=O)NCC(C)O (centres unmarked) [compound 320] | 1,61 | 0,91 | 16.7 | 15.3 | 66.1 | 1,48 | 20.5 | 0,34
COc1ccc([N+](=O)[O-])cc1S(=O)(=O)NCC(C)O (centres unmarked) [compound 321] | 1,44 | 1,05 | 46.7 | 13.7 | 76 | 2,84 | 39.2 | 0,95
COc1cc([N+](=O)[O-])c(Cl)cc1S(=O)(=O)NCC(C)O (centres unmarked) [compound 322, chloro-5 N-(hydroxy-2 propyl) méthoxy-2 nitro-4 benzènesulfonamide] | 0,83 | 1,02 | 13.1 | 7.9 | 73.4 | 3,15 | 43.5 | 0,27
COc1ccc(Cl)cc1S(=O)(=O)N(C)CCO [compound 324] | 2,85 | – | 22.6 | 26.2 | 19.4 | 0,58 | 25.9 | 0,52
COc1cc([N+](=O)[O-])ccc1S(=O)(=O)N(C)CCO [compound 325] | – | – | 1.6 | 0 | 0 | 0,06 | 2.7 | 0,04
COc1cc(N)ccc1S(=O)(=O)N(C)CCO [compound 326] | 0,41 | – | 29 | 3.8 | 20.3 | 0,71 | 31.9 | 0,67
